Measurements as given in US12275735B2, “Ergoline analogues” (BECKLEY PSYTECH LIMITED, priority 2021, dated 2025).

Key:
Assay type in all cases: cell-based
[1] = biological target: T1, Human 5-HT1A Receptor (Homo sapiens, UniProt P08908); assay: Serotonin receptor cAMP assay (Multispan, HTRF); settings: 5-HT 1a receptor; reference 10 μM forskolin, serotonin control; FIG. 1
T1 construct: host or cells: HEK293T
T1 sequence (P08908 1-422): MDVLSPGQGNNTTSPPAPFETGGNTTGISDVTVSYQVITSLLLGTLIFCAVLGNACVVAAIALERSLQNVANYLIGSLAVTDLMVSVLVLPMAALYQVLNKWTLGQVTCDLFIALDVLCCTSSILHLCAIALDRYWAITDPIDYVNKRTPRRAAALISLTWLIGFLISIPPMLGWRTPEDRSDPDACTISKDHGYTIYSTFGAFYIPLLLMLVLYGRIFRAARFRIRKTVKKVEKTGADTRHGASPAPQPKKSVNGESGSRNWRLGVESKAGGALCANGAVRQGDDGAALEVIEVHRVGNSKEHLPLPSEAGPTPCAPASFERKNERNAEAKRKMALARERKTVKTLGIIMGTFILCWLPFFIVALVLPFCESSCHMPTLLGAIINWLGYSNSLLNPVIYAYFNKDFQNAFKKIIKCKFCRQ
Description: (§1) Compounds 018 (above, left) and 019 (above, right) were assayed using a serotonin (1a, 1b, 2a, 2c and 7 receptors) cAMP assay, provided by Multispan. The reference used was 10 μM forskolin (a cAMP activator) to calculate the percentage relative response, serotonin was used as the control. The results can be seen in FIG. 1. Compound 019 was active against in all other receptor assays.
(§2) cAMP Gs dynamic kit—cisbio—cat. No. 62AM4PEC
MULTISCREEN™ HEK293T Cell Line Stably Expressing Human 5-HT1A Receptor, Catalog DC1319a

[2] = biological target: T2, Human 5-HT1B Receptor (Homo sapiens, UniProt P28222); assay: Serotonin receptor cAMP assay (Multispan, HTRF); settings: 5-HT 1b receptor; reference 10 μM forskolin, serotonin control; FIG. 1
T2 construct: host or cells: HEK293T
Description: as §1, §2
MULTISCREEN™ HEK293T Cell Line Stably Expressing Human 5-HT1B Receptor, Catalog DC1320a
MULTISCREEN™ HEK293T Cell Line Stably Expressing Human 5HT1B Receptor, Catalog DC1320a

[3] = biological target: T3, Human 5-HT2A Receptor (Homo sapiens, UniProt P28223); assay: Serotonin receptor cAMP assay (Multispan, HTRF); settings: 5-HT 2a receptor; reference 10 μM forskolin, serotonin control; FIG. 1
T3 construct: host or cells: CHO-K1
Description: as §1, §2
(§3) MULTISCREEN™ CHO-K1 Cell Line Stably Expressing Human 5-HT2A Receptor, Catalog DC1324-1

[4] = biological target: T4, Human 5-HT2C Receptor (Homo sapiens, UniProt P28335); assay: Serotonin receptor cAMP assay (Multispan, HTRF); settings: 5-HT 2c receptor; reference 10 μM forskolin, serotonin control; FIG. 1
T4 construct: host or cells: CHO-K1
T4 sequence (P28335 33-458): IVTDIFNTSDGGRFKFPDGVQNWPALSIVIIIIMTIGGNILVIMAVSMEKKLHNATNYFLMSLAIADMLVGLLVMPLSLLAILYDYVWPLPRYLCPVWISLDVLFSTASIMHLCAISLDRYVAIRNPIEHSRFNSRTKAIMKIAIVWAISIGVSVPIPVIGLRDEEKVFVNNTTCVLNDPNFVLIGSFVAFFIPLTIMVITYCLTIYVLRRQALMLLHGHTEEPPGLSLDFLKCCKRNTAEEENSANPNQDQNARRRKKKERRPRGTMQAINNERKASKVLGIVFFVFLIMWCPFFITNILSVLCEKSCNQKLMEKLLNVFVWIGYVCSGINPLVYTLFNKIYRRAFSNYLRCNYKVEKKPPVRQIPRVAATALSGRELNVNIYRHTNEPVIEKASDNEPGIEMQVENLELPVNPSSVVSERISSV
Description: as §1, §2
(§4) MULTISCREEN™ CHO-K1 Cell Line Stably Expressing Human 5-HT2C Receptor, Catalog DC1326-1

[5] = biological target: T5, Human 5-HT7 Receptor (Homo sapiens, UniProt P34969); assay: Serotonin receptor cAMP assay (Multispan, HTRF); settings: 5-HT 7 receptor; reference 10 μM forskolin, serotonin control; FIG. 1
T5 construct: host or cells: HEK293T
Description: as §1, §2
MULTISCREEN™ HEK293T Cell Line Stably Expressing Human 5-HT7 Receptor, Catalog DC1334

[6] = biological target: T3, Human 5-HT2A Receptor; assay: Serotonin receptor inositol phosphate 1 (IP1) assay (Multispan); settings: 5-HT 2a receptor; reference 1 μM serotonin; FIG. 2
Description: (§5) Compounds 018 and 019 were assayed using a serotonin (2a, 2b and 2c receptors) inositol phosphate 1 (IP1) assay, provided by Multispan. The reference used was 1 μM serotonin to calculate the percentage relative response. The results can be seen in FIG. 2. Both compounds appear to some activity against all three target receptors in this assay.
(§6) IP-One Gq kit—cisbio—cat. No. 62IPAPEB
as §3

[7] = biological target: T6, Human 5-HT2B Receptor (Homo sapiens, UniProt P41595); assay: as above; settings: 5-HT 2b receptor; reference 1 μM serotonin; FIG. 2
T6 construct: host or cells: CHO-K1
Description: as §5, §6
MULTISCREEN™ CHO-K1 Cell Line Stably Expressing Human 5-HT2B Receptor, Catalog DC1325-1

[8] = biological target: T4, Human 5-HT2C Receptor; assay: as above; settings: 5-HT 2c receptor; reference 1 μM serotonin; FIG. 2
Description: as §5, §6, §4

[9] = biological target: T3, Human 5-HT2A Receptor; assay: Serotonin receptor calcium (Ca2+) assay (Multispan, FLIPR); settings: 5-HT 2a receptor; reference 10 μM serotonin; FIG. 3
Description: (§7) Compounds 018 and 019 were assayed using a serotonin (2a, 2b and 2c receptors) calcium (Ca^2+) assay, provided by Multispan. The reference used was 10 μM serotonin to calculate the percentage relative response in relative light units (RLU). The results can be seen in FIG. 3. Both compounds have some activity against the 2a and 2c receptors.
(§8) FLIPR calcium 6 assay explorer kit—VWR—cat. No. MLDVR8190
as §3

[10] = biological target: T4, Human 5-HT2C Receptor; assay: as above; settings: 5-HT 2c receptor; reference 10 μM serotonin; FIG. 3
Description: as §7, §8, §4

[11] = biological target: T7, HTR1A (Homo sapiens, UniProt P08908); assay: Serotonin receptor B-arrestin assay (DiscoverX PathHunter); settings: 5-HT 1a receptor; reference 10 μM serotonin; FIG. 4
T7 construct: host or cells: CHO-K1
T7 sequence (P08908 1-422): T1 sequence (P08908 1-422)
Description: (§9) Compounds 018 and 019 were assayed using a serotonin (1a, 1b, 2a and 2c receptors) B-arrestin assay, provided by DiscoverX. The reference used was 10 μM serotonin to calculate the percentage relative response. The results can be seen in FIG. 4.
(§10) For the B-arrestin assays the cells came with the kits apart from the 2b receptor assay (Valiscreen serotonin 5HT-26 (human) cell line—ES-314-C, Perkin Elmer).

[12] = biological target: T8, HTR1B (Homo sapiens, UniProt P28222); assay: as above; settings: 5-HT 1b receptor; reference 10 μM serotonin; FIG. 4
T8 construct: host or cells: U2OS
Description: as §9, §10

[13] = biological target: T9, HTR2A (Homo sapiens, UniProt P28223); assay: as above; settings: 5-HT 2a receptor; reference 10 μM serotonin; FIG. 4
T9 construct: host or cells: U2OS
Description: as §9, §10

[14] = biological target: T10, HTR2C (Homo sapiens, UniProt P28335); assay: as above; settings: 5-HT 2c receptor; reference 10 μM serotonin; FIG. 4
T10 construct: host or cells: U2OS
T10 sequence (P28335 33-458): T4 sequence (P28335 33-458)
Description: as §9, §10

T3 sequence (P28223 whole entry): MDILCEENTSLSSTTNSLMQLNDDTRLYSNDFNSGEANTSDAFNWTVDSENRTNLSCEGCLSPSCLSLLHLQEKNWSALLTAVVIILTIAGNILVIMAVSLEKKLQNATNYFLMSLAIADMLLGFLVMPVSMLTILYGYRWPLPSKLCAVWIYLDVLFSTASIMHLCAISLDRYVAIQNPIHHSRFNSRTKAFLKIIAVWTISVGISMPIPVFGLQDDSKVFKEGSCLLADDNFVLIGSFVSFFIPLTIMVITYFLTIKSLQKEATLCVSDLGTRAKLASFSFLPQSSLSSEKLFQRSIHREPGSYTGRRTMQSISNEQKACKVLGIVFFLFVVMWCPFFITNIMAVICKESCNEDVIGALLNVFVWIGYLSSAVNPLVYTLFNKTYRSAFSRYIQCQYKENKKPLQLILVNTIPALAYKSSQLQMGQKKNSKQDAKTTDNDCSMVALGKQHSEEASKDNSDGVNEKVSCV
T9 sequence (P28223 whole entry): as above
T6 sequence (P41595 whole entry): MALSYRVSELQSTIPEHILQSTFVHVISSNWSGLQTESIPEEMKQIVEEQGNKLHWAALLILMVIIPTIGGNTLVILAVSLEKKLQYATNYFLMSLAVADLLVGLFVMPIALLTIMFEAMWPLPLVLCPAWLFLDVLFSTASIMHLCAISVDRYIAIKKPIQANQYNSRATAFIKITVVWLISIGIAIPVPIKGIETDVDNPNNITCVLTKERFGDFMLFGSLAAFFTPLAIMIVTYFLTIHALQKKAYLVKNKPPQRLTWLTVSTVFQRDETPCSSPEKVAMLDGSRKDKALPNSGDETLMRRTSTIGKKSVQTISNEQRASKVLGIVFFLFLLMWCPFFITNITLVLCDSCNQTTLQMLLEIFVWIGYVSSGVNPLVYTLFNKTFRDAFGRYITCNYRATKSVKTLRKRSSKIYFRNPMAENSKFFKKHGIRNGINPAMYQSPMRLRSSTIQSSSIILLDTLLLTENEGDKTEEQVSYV
T8 sequence (P28222 whole entry): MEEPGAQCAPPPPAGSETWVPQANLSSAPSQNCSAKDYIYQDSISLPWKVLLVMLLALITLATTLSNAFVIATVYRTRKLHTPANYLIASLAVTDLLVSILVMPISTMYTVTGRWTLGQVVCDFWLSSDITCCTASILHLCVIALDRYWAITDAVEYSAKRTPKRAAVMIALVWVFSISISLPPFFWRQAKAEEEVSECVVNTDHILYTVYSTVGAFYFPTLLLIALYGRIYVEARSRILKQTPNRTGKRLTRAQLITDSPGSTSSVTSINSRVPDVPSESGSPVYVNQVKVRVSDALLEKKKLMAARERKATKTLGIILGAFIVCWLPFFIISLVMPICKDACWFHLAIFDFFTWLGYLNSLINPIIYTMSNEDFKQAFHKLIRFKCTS
T5 sequence (P34969 whole entry): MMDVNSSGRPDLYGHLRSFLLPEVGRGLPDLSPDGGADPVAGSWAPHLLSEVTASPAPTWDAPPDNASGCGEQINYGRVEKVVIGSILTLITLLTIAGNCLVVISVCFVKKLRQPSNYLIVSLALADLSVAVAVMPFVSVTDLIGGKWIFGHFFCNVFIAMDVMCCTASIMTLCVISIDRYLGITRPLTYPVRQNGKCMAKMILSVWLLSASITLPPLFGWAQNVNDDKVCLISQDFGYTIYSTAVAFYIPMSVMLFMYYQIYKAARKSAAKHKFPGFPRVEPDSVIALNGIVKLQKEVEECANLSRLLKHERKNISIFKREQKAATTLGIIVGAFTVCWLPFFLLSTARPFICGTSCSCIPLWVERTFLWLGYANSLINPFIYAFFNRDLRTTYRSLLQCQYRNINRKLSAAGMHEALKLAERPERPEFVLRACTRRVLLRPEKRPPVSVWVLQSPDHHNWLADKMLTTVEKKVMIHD
T2 sequence (P28222 whole entry): as the sequence (P28222 whole entry) above

Structure (SMILES)	cAMP assay activity [1]	cAMP assay activity [2]	cAMP assay activity [3]	cAMP assay activity [4]	cAMP assay activity [5]	IP1 assay activity [6]	IP1 assay activity [7]	IP1 assay activity [8]	Calcium (Ca2+) assay activity [9]	Calcium (Ca2+) assay activity [10]	B-arrestin assay activity [11]	B-arrestin assay activity [12]	B-arrestin assay activity [13]	B-arrestin assay activity [14]
CC(C)NC(=O)[C@@H]1C=C2c3cccc4[nH]cc(c34)C[C@H]2N(C)C1 [Compound 019, (4R,6R,7R)-6-methyl-4-[(propan-2-yl)carbamoyl]-6,11-diazatetra-cyclo[7.6.1.0^2,^7^7.0^12,^16] hexadeca-1(16),2,9,12,14-pentaen-6-ium]	active	active	stimulates the 5HT2aR leading to downstream activation of cAMP	active	active	some activity	some activity	some activity	some activity	some activity	some activity	some activity	some activity	some activity
CCCCCN(C(=O)[C@@H]1C=C2c3cccc4[nH]cc(c34)C[C@H]2N(C)C1)C(C)C [Compound 018, (4R,6R,7R)-6-methyl-4-[pentyl(propan-2-yl)carbamoyl]-6,11-diazatetra-cyclo[7.6.1.0^2,^7.0^12,^16] hexadeca-1(16),2,9,12,14-pentaen-6-ium]						some activity	some activity	some activity	some activity	some activity	some activity	some activity	some activity	some activity
